# Values of other authors as cited in article PMC11206245 (Pharmaceuticals, 2024).
# Read-outs that look alike come from different tables or passages of the source.
# Legend:
# [1] = set-up: method as in PMID 22124669, PMID 20618337; details: humans; cited from earlier work
# dogs = tested on: dogs; set-up: method as in PMID 15986212; details: cited from earlier work
SMILES,half-life [1],Toxicity outcome (dogs; 16 mg/m^2 orally),Toxicity outcome (dogs; daily intravenous dose of 8 mg/m^2),Toxicity outcome (dogs; intravenous daily doses of 16 mg/m^2)
"CO[C@H]1/C=C\C=C(/C)C(=O)NC2=CC(=O)C(N)=C(C[C@@H](C)C[C@H](OC)[C@H](O)[C@@H](C)/C=C(\C)[C@@H]1OC(N)=O)C2=O [17-AG, 17-amino-geldanamycin]",6.2 to 7.6 h,–,–,–
"CO[C@H]1/C=C\C=C(/C)C(=O)NC2=CC(=O)C(NCCN(C)C)=C(C[C@@H](C)C[C@H](OC)[C@H](O)[C@@H](C)/C=C(\C)[C@@H]1OC(N)=O)C2=O [17-DMAG, 17-dimethylaminoethylamino-17-demetoxigeldanamycin]",–,Toxicity was also observed,Toxicity was also observed,fatal
